# Data reported in the supplement of paper PMC10307832.
# Assays:
# Assay in all cases: relative viability (nuclei count vs DMSO), 5 days (fraction); higher = more cells survive
# [1] = compound: O=C(Nc1c[nH]nc1-c1nc2ccc(CN3CCOCC3)cc2[nH]1)NC1CC1 [AT9283] + CS(=O)(=O)CCNCc1ccc(-c2ccc3ncnc(Nc4ccc(OCc5cccc(F)c5)c(Cl)c4)c3c2)o1 [Lapatinib] (partner 2 µM)
# How it was run: (§1)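 Lung cancer cell lines, seeded in 1536-well plates, were treated the following day by pin tool with a single drug or with five library-drug doses (not always all listed) in √10 steps on top of a fixed anchor-drug dose. Cells were fixed and nuclei stained in one step after 5 days, and nuclei were counted. Relative viability is the nuclei count for treated wells divided by that for vehicle wells, reported as medians of duplicate plates.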
# [2] = compound: C#Cc1cccc(Nc2ncnc3cc(OCCOC)c(OCCOC)cc23)c1 [Erlotinib] + Cc1cc(Nc2cc(N3CCN(C)CC3)nc(Sc3ccc(NC(=O)C4CC4)cc3)n2)n[nH]1 [Tozasertib] (partner 0.1 µM)
# How it was run: as §1
# [3] = compound: C#Cc1cccc(Nc2ncnc3cc(OCCOC)c(OCCOC)cc23)c1 [Erlotinib] + N=C(N)NC(=N)NCCc1ccccc1 [Phenformin] (partner 250 µM)
# How it was run: as §1
# [4] = compound: C#Cc1cccc(Nc2ncnc3cc(OCCOC)c(OCCOC)cc23)c1 [Erlotinib] + Nc1ncn([C@H]2C[C@H](O)[C@@H](CO)O2)c(=O)n1 [Decitabine] (partner 2 µM)
# How it was run: as §1
# [5] = compound: C#Cc1cccc(Nc2ncnc3cc(OCCOC)c(OCCOC)cc23)c1 [Erlotinib] + O=C(CCCCCCC(=O)Nc1ccccc1)NO [Vorinostat] (partner 1 µM)
# How it was run: as §1
Cell Line,relative viability ([1]; first compound 0.003 µM),relative viability ([1]; first compound 0.03 µM),relative viability ([1]; first compound 0.09487 µM),relative viability ([1]; first compound 0.3 µM),relative viability ([2]; first compound 0.02 µM),relative viability ([2]; first compound 0.2 µM),relative viability ([2]; first compound 0.6325 µM),relative viability ([2]; first compound 2 µM),relative viability ([3]; first compound 0.02 µM),relative viability ([3]; first compound 0.2 µM),relative viability ([3]; first compound 0.6325 µM),relative viability ([3]; first compound 2 µM),relative viability ([4]; first compound 0.02 µM),relative viability ([4]; first compound 0.2 µM),relative viability ([4]; first compound 0.6325 µM),relative viability ([4]; first compound 2 µM),relative viability ([5]; first compound 0.02 µM),relative viability ([5]; first compound 0.2 µM),relative viability ([5]; first compound 0.6325 µM),relative viability ([5]; first compound 2 µM)
NCI-H520,0.77,0.295,0.21,0.196,0.427,0.471,0.466,0.432,0.751,0.525,0.646,0.706,0.593,0.504,0.519,0.564,0.718,0.693,0.83,0.71
HOP-62,1.06,0.984,0.47,0.176,0.405,0.409,0.411,0.26,0.726,,0.711,0.689,0.232,0.221,0.187,0.241,0.714,0.492,0.759,0.716
PC-14,0.328,0.393,0.203,0.102,0.435,0.148,0.159,0.103,0.278,0.171,0.177,0.139,0.194,0.142,0.151,0.145,0.428,0.0858,0.0926,0.061
UMC-11,0.978,0.142,0.128,0.202,0.208,0.189,0.204,0.198,0.334,0.281,0.301,0.287,0.652,0.597,0.636,0.567,0.388,0.403,0.392,0.3
NCI-H2405,1.15,0.789,0.295,0.198,0.765,0.722,0.686,0.565,0.449,0.347,0.401,0.404,,0.706,0.647,0.629,1.27,1.1,1.1,0.917
HARA,0.767,0.504,0.0806,0.0666,0.0745,0.0897,0.0791,0.0606,0.44,0.407,0.444,0.243,0.69,0.49,0.374,0.353,0.643,0.598,0.402,0.445
NCI-H1437,0.702,0.246,0.157,0.155,0.406,0.403,0.448,0.357,0.352,0.301,0.286,0.286,0.575,0.57,0.598,0.514,,0.873,0.818,0.667
COR-L23,1,0.12,0.129,0.172,0.253,0.202,0.163,0.114,0.439,0.452,0.448,0.416,0.425,0.432,0.49,0.434,0.583,0.423,0.489,0.362
